# Values quoted from earlier work, collected in patent US20080171083A1, “Pharmaceutical Compositions Comprising an Amphiphilic Starch” (VECTURE LIMITED, priority 2004, published 2008).
# Where a name gives a salt, the structure may show the parent alone.
# Conditions: class-1 high solubility, class-2 highly permeable, low solubility, class-3 low permeability, class-4 low solubility
row,SMILES,BCS class (solubility / permeability)
1,NCC1(CC(=O)O)CCCCC1 [Gabapentin],class-3
2,COc1ccccc1OCCNCC(O)COc1cccc2[nH]c3ccccc3c12 (stereo not shown) [Carvedilol],class-4
3,COc1ccc2c(c1)c(CC(=O)O)c(C)n2C(=O)c1ccc(Cl)cc1 [Indomethacin],class-2
4,CC(C)NCC(O)COc1cccc2ccccc12 (stereo not shown) [propranolol hydrochloride],class-1
